On the set-up of data set [1]: species or system human. The settings on record: human, in vivo. An excerpt:
Accumulated data have shown that maribavir is metabolized primarily in the liver, and renal clearance is a minor route (representing less than 5 percent). VP 44469 (N-dealkylated Maribavir) was the principal metabolite of maribavir in both urine and feces. In plasma, unchanged maribavir and VP 44469 represented approximately 69% and 9.8% of total radioactivity, respectively. The hepatic metabolism of maribavir was primarily driven by cytochrome P450s. CYP3A4 and CYP1A2 were responsible for 70 to 85% and 15 to 30% of the CYP-driven pathways, respectively. Glucuronidation accounted for less than 20% of metabolism.
Distribution models evaluated included a full PBPK model and a minimal PBPK model, both of which consider liver and intestinal metabolism. Mass balance data from the [^14C] ADME study indicated a fraction absorbed of 0.83 or greater following oral administration of 400 mg dose of maribavir. Absorption models evaluated included a simple first-order absorption model and a more mechanistic “Advanced Dissolution Absorption and Metabolism” (ADAM) model.

Data set [2] is described as follows: Observed clinical interaction of maribavir with rifampicin. The data set is classed as in vivo, human. The settings on record: maribavir 400 mg BID with/without rifampicin 600 mg QD. As for the experimental part: A comparison of observed and predicted plasma concentrations of maribavir following multiple oral doses of 400 mg administered in the absence of rifampicin and during concurrent treatment with rifampicin was performed. Subjects took maribavir 400 mg BID on Days 1-3 (5 doses), then rifampicin 600 mg QD on Days 4 through 12, followed by both maribavir 400 mg (BID) and rifampicin 600 mg QD on Days 13 and 14, with final doses of maribavir and rifampicin on the morning of Day 15.

Data set [3] is described as follows: Drug interaction summary: effect of co-administered drugs on maribavir pharmacokinetics (Tables 1-A, 1-B). An excerpt:
Drug interaction studies were summarized based on Example 2 and other available data (e.g., in vitro and clinical data).

The next data set deals with T1, CYP1A2 (Homo sapiens, UniProt P05177).
T1 sequence (P05177 1-516): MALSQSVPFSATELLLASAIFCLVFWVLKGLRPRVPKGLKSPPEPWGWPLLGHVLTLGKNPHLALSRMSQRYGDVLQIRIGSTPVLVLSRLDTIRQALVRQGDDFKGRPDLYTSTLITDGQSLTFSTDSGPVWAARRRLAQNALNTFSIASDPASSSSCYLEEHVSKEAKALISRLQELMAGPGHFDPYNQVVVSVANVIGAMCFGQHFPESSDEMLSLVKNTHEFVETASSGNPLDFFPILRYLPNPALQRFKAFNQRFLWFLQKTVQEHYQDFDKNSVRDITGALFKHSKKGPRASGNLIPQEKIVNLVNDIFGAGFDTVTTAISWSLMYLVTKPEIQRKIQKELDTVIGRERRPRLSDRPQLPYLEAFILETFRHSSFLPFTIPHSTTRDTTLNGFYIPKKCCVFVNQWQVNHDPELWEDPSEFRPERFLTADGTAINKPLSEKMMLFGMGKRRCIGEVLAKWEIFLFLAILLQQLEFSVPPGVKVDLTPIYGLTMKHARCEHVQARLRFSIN
In words: Time-dependent CYP inhibition (IC50 shift, 30 minute pre-incubation with HLM +/- NADPH). The data set is classed as in vitro ADME. Set-up: from tissue. The settings on record: up to 100 μM. As for the experimental part: (§1) Time-dependent inhibition (TDI) potentials for various CYP enzymes were evaluated by a 30 minute pre-incubation of maribavir with HLM in the presence and absence of nicotinamide-adenine dinucleotide […] (NADPH) followed by a CYP enzyme activity assay.

The next data set has as its target CYP2C19 (Homo sapiens, UniProt P33261). The data set is described as above. The settings on record: up to 100 μM. More on the design: from tissue. The data set is classed as in vitro ADME. The procedure:
as §1

The target of another data set is T2, CYP2C8 (Homo sapiens, UniProt P10632).
T2 sequence (P10632 1-490): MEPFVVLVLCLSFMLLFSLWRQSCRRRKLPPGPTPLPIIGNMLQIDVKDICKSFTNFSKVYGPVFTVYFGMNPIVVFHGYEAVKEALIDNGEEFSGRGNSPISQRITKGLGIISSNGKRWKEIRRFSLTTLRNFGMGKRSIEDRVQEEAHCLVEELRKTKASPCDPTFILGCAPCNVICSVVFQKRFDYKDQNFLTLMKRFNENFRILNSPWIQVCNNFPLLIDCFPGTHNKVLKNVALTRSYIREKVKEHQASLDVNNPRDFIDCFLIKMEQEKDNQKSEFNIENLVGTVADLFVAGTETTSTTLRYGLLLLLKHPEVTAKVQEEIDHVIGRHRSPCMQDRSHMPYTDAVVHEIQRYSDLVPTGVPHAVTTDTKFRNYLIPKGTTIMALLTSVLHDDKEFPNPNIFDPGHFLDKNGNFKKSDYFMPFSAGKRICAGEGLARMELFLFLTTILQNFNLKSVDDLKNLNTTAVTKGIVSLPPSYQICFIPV
The description is as above. The data set is classed as in vitro ADME. Set-up: from tissue. The settings on record: up to 100 μM. The procedure:
as §1

For a further data set, the target named is CYP2C9 (Homo sapiens, UniProt P11712). Described as above. The data set is classed as in vitro ADME. Set-up: from tissue. The following applies: up to 100 μM. The procedure: as §1
CYP2C9, sequence (P11712 whole entry): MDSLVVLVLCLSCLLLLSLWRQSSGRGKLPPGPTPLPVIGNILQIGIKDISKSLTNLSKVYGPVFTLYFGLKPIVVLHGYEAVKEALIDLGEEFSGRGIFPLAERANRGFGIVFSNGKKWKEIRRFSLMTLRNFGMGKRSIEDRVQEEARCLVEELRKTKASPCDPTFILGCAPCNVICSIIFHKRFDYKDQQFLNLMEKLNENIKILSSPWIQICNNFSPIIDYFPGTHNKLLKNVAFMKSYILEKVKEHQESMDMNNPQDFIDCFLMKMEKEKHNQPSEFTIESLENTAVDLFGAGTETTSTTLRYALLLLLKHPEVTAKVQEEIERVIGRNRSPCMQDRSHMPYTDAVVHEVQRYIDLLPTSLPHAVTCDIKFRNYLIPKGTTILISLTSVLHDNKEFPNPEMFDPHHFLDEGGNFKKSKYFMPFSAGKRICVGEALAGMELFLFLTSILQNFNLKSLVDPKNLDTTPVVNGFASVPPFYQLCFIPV
In a further data set the target is CYP2D6 (Homo sapiens, UniProt P10635). The description is as above. The following applies: up to 100 μM. The data set is classed as in vitro ADME. More on the design: from tissue. As for the experimental part:
as §1

Setting [4] is: Aluminum hydroxide and magnesium hydroxide antacid 20 mL single dose, maribavir 100 mg single dose.
[5] abbreviates: Ketoconazole 400 mg single dose, maribavir 400 mg single dose.
Setting [6] is: Rifampin 600 mg once daily, maribavir 400 mg twice daily.

Entries after “also recorded” stand apart in the source; their conditions may differ.

CYP2D6, sequence (P10635 whole entry): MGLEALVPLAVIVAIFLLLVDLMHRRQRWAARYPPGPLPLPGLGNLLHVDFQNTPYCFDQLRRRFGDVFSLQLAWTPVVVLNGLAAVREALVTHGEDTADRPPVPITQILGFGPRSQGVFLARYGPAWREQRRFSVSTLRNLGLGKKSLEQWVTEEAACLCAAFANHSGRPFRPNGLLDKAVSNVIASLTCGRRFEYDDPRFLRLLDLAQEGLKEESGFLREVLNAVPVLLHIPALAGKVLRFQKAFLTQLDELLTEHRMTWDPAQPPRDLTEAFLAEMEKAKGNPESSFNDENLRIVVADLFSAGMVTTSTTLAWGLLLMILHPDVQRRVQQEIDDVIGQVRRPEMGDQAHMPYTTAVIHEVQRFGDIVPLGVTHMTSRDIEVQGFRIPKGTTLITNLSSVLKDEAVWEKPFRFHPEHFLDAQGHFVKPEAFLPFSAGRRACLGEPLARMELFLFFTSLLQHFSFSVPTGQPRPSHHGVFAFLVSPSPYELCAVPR
CYP2C19, sequence (P33261 whole entry): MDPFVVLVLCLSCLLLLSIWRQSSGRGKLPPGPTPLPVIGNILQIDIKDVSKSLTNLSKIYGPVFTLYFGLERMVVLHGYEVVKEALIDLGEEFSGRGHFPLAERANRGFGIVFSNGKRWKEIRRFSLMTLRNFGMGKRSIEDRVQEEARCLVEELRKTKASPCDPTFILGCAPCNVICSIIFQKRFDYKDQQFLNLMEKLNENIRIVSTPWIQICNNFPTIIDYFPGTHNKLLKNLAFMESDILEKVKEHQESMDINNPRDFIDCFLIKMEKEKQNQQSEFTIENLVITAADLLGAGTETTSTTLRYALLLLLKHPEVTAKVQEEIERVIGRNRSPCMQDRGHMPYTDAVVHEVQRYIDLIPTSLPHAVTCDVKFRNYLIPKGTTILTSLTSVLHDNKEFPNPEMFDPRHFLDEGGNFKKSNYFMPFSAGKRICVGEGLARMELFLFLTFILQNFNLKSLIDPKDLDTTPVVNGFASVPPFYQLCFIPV

For `CC(C)Nc1nc2cc(Cl)c(Cl)cc2n1[C@H]1O[C@@H](CO)[C@H](O)[C@@H]1O` [maribavir, (2S,3S,4R,5S)-2-(5,6-dichloro-2-(isopropylamino)-1H-benzo[d]imidazol-1-yl)-5-(hydroxymethyl)tetrahydrofuran-3,4-diol], in data set [1], the “contribution of CYP1A2 to the CYP-driven pathways” value is 15-30%, the “contribution of CYP3A4 to the CYP-driven pathways” value is 70-85%, the “share of metabolism by glucuronidation” value was “less than 20%” and the “share of total radioactivity in plasma” value is listed as “approximately 69%”. In data set [2], the “Ratio AUC(0-12 h), observed Mean” value turned out to be 0.41; the “Ratio C12 h, observed Mean” value was found to be 0.17; the “Ratio Cmax, observed Mean” value is on record as 0.65. Besides, in data set [3] (setting [4]), the “Geometric Mean Ratio of Maribavir PK with/without Co-administered Drug (No Effect = 1.00), AUC” value turned out to be 0.89 and the “Geometric Mean Ratio of Maribavir PK with/without Co-administered Drug (No Effect = 1.00), Cmax” value came to 0.84. In data set [3] (setting [5]), the “Geometric Mean Ratio of Maribavir PK with/without Co-administered Drug (No Effect = 1.00), AUC” value was determined as 1.53 and the “Geometric Mean Ratio of Maribavir PK with/without Co-administered Drug (No Effect = 1.00), Cmax” value worked out at 1.10. Also, in data set [3] (setting [6]), the “Geometric Mean Ratio of Maribavir PK with/without Co-administered Drug (No Effect = 1.00), AUC” value is listed as 0.40 and the “Geometric Mean Ratio of Maribavir PK with/without Co-administered Drug (No Effect = 1.00), Cmax” value is given as 0.61. In addition, the “Geometric Mean Ratio of Maribavir PK with/without Co-administered Drug (No Effect = 1.00), Ctau” value in data set [3] (Rifampin 600 mg once daily, maribavir 400 mg twice daily, tau 12 hours) was 0.18. The “time-dependent inhibition (TDI) of CYP1A2” value at CYP1A2 is “not a time-dependent inhibitor; also recorded: unlikely a TDI”. Further, the “time-dependent inhibition (TDI) of CYP2C19” value on CYP2C19 is listed as “not a time-dependent inhibitor; also recorded: unlikely a TDI”. Further, the “time-dependent inhibition (TDI) of CYP2C8” value at CYP2C8 is on record as “not a time-dependent inhibitor; also recorded: unlikely a TDI”. Also, the “time-dependent inhibition (TDI) of CYP2C9” value on CYP2C9 is “not a time-dependent inhibitor; also recorded: unlikely a TDI”. The “time-dependent inhibition (TDI) of CYP2D6” value at CYP2D6 is “not a time-dependent inhibitor; also recorded: unlikely a TDI”.

Source of the values: patent publication US12447170B2, “Use of maribavir in treatment regimens” (priority 2021, dated 2025).
